Laboratory results taken from patent US8324198B1, “Monocarbams” (Pfizer Inc., priority 2008, dated 2012).
Converted amounts (≈) assume the structure as drawn. Where a name gives a salt, the structure may show the parent alone.

What was measured:
[1] = system: Klebsiella pneumoniae 1000-02; test: In vitro MIC, Klebsiella pneumoniae 1000-02; format: cell-based; settings: strain 1000-02, resistant to cephalosporins
From the text: (§1) Culture collection strain 1045-06 is resistant to several classes of known antimicrobial agents including carbapenems, aminoglycosides and fluoroquinolones, while strains 1000-02 and 3167 are resistant to cephalosporins. Strain PA0200 is a derivative of laboratory strain PAO1 that lacks a functional MexAB-oprM efflux pump.

[2] = system: Acinetobacter baumanii 3167; test: In vitro MIC, Acinetobacter baumanii 3167; format: cell-based; settings: strain 3167, resistant to cephalosporins
From the text: as §1

P. aeruginosa 1091-05 [3] = test: Murine respiratory tract infection model against P. aeruginosa 1091-05 (PD50); format: in vivo; settings: for RTI PD50 vs. Pa 1091-05 (95% confidence interval): immunosuppressed C3H/HeN mice, intranasal challenge, subcutaneous BID for two days from 4 h post-challenge, lethality over ten days; for Efficacy relative to Comparative Example A (PD50, 95% confidence intervals): murine respiratory tract infection model, P. aeruginosa 1091-05
Method: For this model, C3H/HeN mice were immunosuppressed with cyclophosphamide given orally at 150 mg/kg and 100 mg/kg on days −4 and −1 relative to challenge, respectively. Mice were anesthetized with isoflurane (5% in oxygen) and the bacterial inoculum was given to each mouse via intranasal instillation in a 40 μL volume (˜2.8×10^3 cfu per mouse). Mice were dosed with compound administered via subcutaneous injection beginning at four hours post-challenge, and continuing for two days of BID therapy.
PD50 is a measure of the ability of a compound to protect mice from a lethal infection.

P. aeruginosa 1091-05 [4] = test: In vitro MIC, P. aeruginosa 1091-05; format: cell-based; settings: for MIC: Pseudomonas aeruginosa, 109105, read-out: Pa 1091-05 MIC
[5] = system: Pseudomonas aeruginosa 1045-06; test: In vitro MIC, Pseudomonas aeruginosa 1045-06; format: cell-based; settings: strain 1045-06, resistant to carbapenems, aminoglycosides and fluoroquinolones
From the text: as §1

[6] = system: Pseudomonas aeruginosa PA0200 MexAB-oprM KO; test: In vitro MIC, Pseudomonas aeruginosa PA0200 MexAB-oprM KO; format: cell-based; settings: PAO1, read-out: MIC Pseudomonas aeruginosa PA0200 MexAB-oprM KO
From the text: as §1

| Molecule | MIC Klebsiella pneumoniae 1000-02 [1] [mg/mL] | MIC Acinetobacter baumanii 3167 [2] [mg/mL] | RTI PD50 vs. Pa 1091-05 (95% confidence interval) (P. aeruginosa 1091-05 [3]; disodium salt) | Efficacy relative to Comparative Example A (PD50, 95% confidence intervals) (P. aeruginosa 1091-05 [3]) | Pa 1091-05 MIC (P. aeruginosa 1091-05 [4]) [mg/mL] | MIC Pseudomonas aeruginosa 1045-06 [5] [mg/mL] | MIC [6] [µg/mL] | further results |
| --- | --- | --- | --- | --- | --- | --- | --- | --- |
| 2-({[(1Z)-2-{[(3S)-1-({[4-(2-amino-2-oxoethyl)-3-(5-hydroxy-4-oxo-1,4-dihydropyridin-2-yl)-5-oxo-4,5-dihydro-1H-1,2,4-triazol-1-yl]sulfonyl}carbamoyl)-2-oxoazetidin-3-yl]amino}-1-(2-amino-1,3-thiazol-4-yl)-2-oxoethylidene]amino}oxy)-2-methylpropanoic acid, disodium salt [Example 4] | 1 | 1 | 25.0 (24.8-25.2) mg/kg | significantly more efficacious relative to Comparative Example A | 0.125 | 0.5 | – | – |
| CCn1c(-c2cc(=O)c(O)c[nH]2)nn(S(=O)(=O)NC(=O)N2C[C@H](NC(=O)C(=NOC(C)(C)C(=O)O)c3csc(N)n3)C2=O)c1=O (stereo in doubt) [Example 1, 2-({[(1E)-1-(2-amino-1,3-thiazol-4-yl)-2-{[(3S)-1-({[4-ethyl-3-(5-hydroxy-4-oxo-1,4-dihydropyridin-2-yl)-5-oxo-4,5-dihydro-1H-1,2,4-triazol-1-yl]sulfonyl}carbamoyl)-2-oxoazetidin-3-yl]amino}-2-oxoethylidene]amino}oxy)-2-methylpropanoic acid] | – | – | – | – | – | – | < 62.5 | – |
| CO/N=C(\C(=O)N[C@@H]1C(=O)N2C(C(=O)[O-])=C(C[N+]3(C)CCCC3)CS[C@H]12)c1csc(N)n1 [Cefepime, reference compound] | – | – | – | – | – | – | – | RTI PD50 vs. Pa 1091-05 (95% confidence interval) (P. aeruginosa 1091-05 [3]): 22 mg/kg; MIC (P. aeruginosa 1091-05 [4]): 2000 µg/mL (≈ 4160 µM) |
| CN(C)CCn1c(-c2cc(=O)c(O)c[nH]2)nn(S(=O)(=O)NC(=O)N2C[C@H](NC(=O)/C(=N\OC(C)(C)C(=O)O)c3csc(N)n3)C2=O)c1=O [Example 2, 2-({[(1Z)-1-(2-amino-1,3-thiazol-4-yl)-2-({(3S)-1-[({4-[2-(dimethylamino)ethyl]-3-(5-hydroxy-4-oxo-1,4-dihydropyridin-2-yl)-5-oxo-4,5-dihydro-1H-1,2,4-triazol-1-yl}sulfonyl)carbamoyl]-2-oxoazetidin-3-yl}amino)-2-oxoethylidene]amino}oxy)-2-methylpropanoic acid] | – | – | – | – | – | – | 188 (≈ 264 µM) | – |
| CC(C)(O/N=C(\C(=O)N[C@H]1CN(C(=O)NS(=O)(=O)n2nc(-c3cc(=O)c(O)c[nH]3)n(C[C@@H](O)CO)c2=O)C1=O)c1csc(N)n1)C(=O)[O-].CC(C)(O/N=C(\C(=O)N[C@H]1CN(C(=O)NS(=O)(=O)n2nc(-c3cc(=O)c(O)c[nH]3)n(C[C@@H](O)CO)c2=O)C1=O)c1csc(N)n1)C(=O)[O-].[Na+].[Na+] [Example 3, 2-({[(1Z)-1-(2-amino-1,3-thiazol-4-yl)-2-({(3S)-1-[({4-[(2R)-2,3-dihydroxypropyl]-3-(5-hydroxy-4-oxo-1,4-dihydropyridin-2-yl)-5-oxo-4,5-dihydro-1H-1,2,4-triazol-1-yl}sulfonyl)carbamoyl]-2-oxoazetidin-3-yl}amino)-2-oxoethylidene]amino}oxy)-2-methylpropanoic acid, disodium salt] | 0.5 | 0.5 | 20.6 (8.7-32.52) mg/kg | significantly more efficacious relative to Comparative Example A | 0.125 | 0.5 | – | – |
| CC(C)(O/N=C(\C(=O)N[C@H]1CN(C(=O)NS(=O)(=O)n2nc(-c3cc(=O)c(O)c[nH]3)n(C[C@H](O)CO)c2=O)C1=O)c1csc(N)n1)C(=O)[O-].CC(C)(O/N=C(\C(=O)N[C@H]1CN(C(=O)NS(=O)(=O)n2nc(-c3cc(=O)c(O)c[nH]3)n(C[C@H](O)CO)c2=O)C1=O)c1csc(N)n1)C(=O)[O-].[Na+].[Na+] [Example 5, 2-({[(1Z)-1-(2-amino-1,3-thiazol-4-yl)-2-({(3S)-1-[({4-[(2S)-2,3-dihydroxypropyl]-3-(5-hydroxy-4-oxo-1,4-dihydropyridin-2-yl)-5-oxo-4,5-dihydro-1H-1,2,4-triazol-1-yl}sulfonyl)carbamoyl]-2-oxoazetidin-3-yl}amino)-2-oxoethylidene]amino}oxy)-2-methylpropanoic acid, disodium salt] | 0.5 | 0.5 | 18.6 (8.94-28.29) mg/kg | significantly more efficacious relative to Comparative Example A | 0.125 | 0.25 | – | – |
| C[C@@H](O)Cn1c(-c2cc(=O)c(O)c[nH]2)nn(S(=O)(=O)NC(=O)N2C[C@H](NC(=O)/C(=N\OC(C)(C)C(=O)[O-])c3csc(N)n3)C2=O)c1=O.C[C@@H](O)Cn1c(-c2cc(=O)c(O)c[nH]2)nn(S(=O)(=O)NC(=O)N2C[C@H](NC(=O)/C(=N\OC(C)(C)C(=O)[O-])c3csc(N)n3)C2=O)c1=O.[Na+].[Na+] [Example 6] | 0.5 | 1 | 32.7 (23.7-42.0) mg/kg | significantly more efficacious relative to Comparative Example A | 0.125 | 0.25 | – | – |
| CCCn1c(-c2cc(=O)c(O)c[nH]2)nn(S(=O)(=O)NC(=O)N2C[C@H](NC(=O)/C(=N\OC(C)(C)C(=O)O)c3csc(N)n3)C2=O)c1=O [Example 9, 2-({[(1Z)-1-(2-amino-1,3-thiazol-4-yl)-2-{[(3S)-1-({[3-(5-hydroxy-4-oxo-1,4-dihydropyridin-2-yl)-5-oxo-4-propyl-4,5-dihydro-1H-1,2,4-triazol-1-yl]sulfonyl}carbamoyl)-2-oxoazetidin-3-yl]amino}-2-oxoethylidene]amino}oxy)-2-methylpropanoic acid] | – | – | – | – | – | – | < 62.5 | – |
| CC(C)(O/N=C(\C(=O)N[C@H]1CN(C(=O)NS(=O)(=O)n2nc(-c3cc(=O)c(O)c[nH]3)n(CC(O)CO)c2=O)C1=O)c1csc(N)n1)C(=O)O (stereo partly drawn) [Example 10, 2-({[(1Z)-1-(2-amino-1,3-thiazol-4-yl)-2-{[(3S)-1-({[4-(2,3-dihydroxypropyl)-3-(5-hydroxy-4-oxo-1,4-dihydropyridin-2-yl)-5-oxo-4,5-dihydro-1H-1,2,4-triazol-1-yl]sulfonyl}carbamoyl)-2-oxoazetidin-3-yl]amino}-2-oxoethylidene]amino}oxy)-2-methylpropanoic acid] | – | – | – | – | – | – | 250 (≈ 350 µM) | – |
| CC(C)(O/N=C(\C(=O)N[C@H]1CN(C(=O)NS(=O)(=O)n2nc(-c3cc(=O)c(O)c[nH]3)n(CCN3CCCC3)c2=O)C1=O)c1csc(N)n1)C(=O)O [Example 11, 2-({[(1Z)-1-(2-amino-1,3-thiazol-4-yl)-2-{[(3S)-1-({[3-(5-hydroxy-4-oxo-1,4-dihydropyridin-2-yl)-5-oxo-4-(2-pyrrolidin-1-ylethyl)-4,5-dihydro-1H-1,2,4-triazol-1-yl]sulfonyl}carbamoyl)-2-oxoazetidin-3-yl]amino}-2-oxoethylidene]amino}oxy)-2-methylpropanoic acid] | – | – | – | – | – | – | 16000 (≈ 21700 µM) | – |
| COCCn1c(-c2cc(=O)c(O)c[nH]2)nn(S(=O)(=O)NC(=O)N2C[C@H](NC(=O)/C(=N\OC(C)(C)C(=O)O)c3csc(N)n3)C2=O)c1=O [Example 15, 2-({[(1Z)-1-(2-amino-1,3-thiazol-4-yl)-2-{[(3S)-1-({[3-(5-hydroxy-4-oxo-1,4-dihydropyridin-2-yl)-4-(2-methoxyethyl)-5-oxo-4,5-dihydro-1H-1,2,4-triazol-1-yl]sulfonyl}carbamoyl)-2-oxoazetidin-3-yl]amino}-2-oxoethylidene]amino}oxy)-2-methylpropanoic acid, disodium salt] | – | – | – | – | – | – | – | RTI PD50 vs. Pa 1091-05 (95% confidence interval) (P. aeruginosa 1091-05 [3]): >70.8 mg/kg; MIC (P. aeruginosa 1091-05 [4]): 500 µg/mL |
| C[C@@H](O)[C@H]1C(=O)N2C(C(=O)O)=C(SCCN=CN)C[C@H]12 [Imipenem, reference compound] | – | – | – | – | – | – | – | RTI PD50 vs. Pa 1091-05 (95% confidence interval) (P. aeruginosa 1091-05 [3]): 1.04 mg/kg; MIC (P. aeruginosa 1091-05 [4]): 500 µg/mL (≈ 1670 µM) |
